Assay results taken from patent US20020026053A1, “Novel 3-(substituted) -2- indolinones compounds and use thereof as inhibitors of protein kinase activity” (priority 1997, published 2002).

target: T1, Met receptor (EGFR/Met chimeric cells, EMR) (Homo sapiens, UniProt P08581); experiment: Met Autophosphorylation Assay; type: biochemical; details: protocol P.130
T1 construct: expressed in transfected cells; the other entry of the earlier key: EGFR (P00533, Epidermal growth factor receptor)
In short: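 Transiently transfected EGFR/Met chimeric (EMR) cells were lysed in HNTG with 1 mM PMSF. Met was captured on plates coated with goat anti-rabbit IgG, then rabbit anti-Met (C-28), using 90 μg lysate/100 μl for 60 min at room temperature. Phosphotyrosine was read by ELISA.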

T1 sequence (P08581 with tags, fused parts or gaps): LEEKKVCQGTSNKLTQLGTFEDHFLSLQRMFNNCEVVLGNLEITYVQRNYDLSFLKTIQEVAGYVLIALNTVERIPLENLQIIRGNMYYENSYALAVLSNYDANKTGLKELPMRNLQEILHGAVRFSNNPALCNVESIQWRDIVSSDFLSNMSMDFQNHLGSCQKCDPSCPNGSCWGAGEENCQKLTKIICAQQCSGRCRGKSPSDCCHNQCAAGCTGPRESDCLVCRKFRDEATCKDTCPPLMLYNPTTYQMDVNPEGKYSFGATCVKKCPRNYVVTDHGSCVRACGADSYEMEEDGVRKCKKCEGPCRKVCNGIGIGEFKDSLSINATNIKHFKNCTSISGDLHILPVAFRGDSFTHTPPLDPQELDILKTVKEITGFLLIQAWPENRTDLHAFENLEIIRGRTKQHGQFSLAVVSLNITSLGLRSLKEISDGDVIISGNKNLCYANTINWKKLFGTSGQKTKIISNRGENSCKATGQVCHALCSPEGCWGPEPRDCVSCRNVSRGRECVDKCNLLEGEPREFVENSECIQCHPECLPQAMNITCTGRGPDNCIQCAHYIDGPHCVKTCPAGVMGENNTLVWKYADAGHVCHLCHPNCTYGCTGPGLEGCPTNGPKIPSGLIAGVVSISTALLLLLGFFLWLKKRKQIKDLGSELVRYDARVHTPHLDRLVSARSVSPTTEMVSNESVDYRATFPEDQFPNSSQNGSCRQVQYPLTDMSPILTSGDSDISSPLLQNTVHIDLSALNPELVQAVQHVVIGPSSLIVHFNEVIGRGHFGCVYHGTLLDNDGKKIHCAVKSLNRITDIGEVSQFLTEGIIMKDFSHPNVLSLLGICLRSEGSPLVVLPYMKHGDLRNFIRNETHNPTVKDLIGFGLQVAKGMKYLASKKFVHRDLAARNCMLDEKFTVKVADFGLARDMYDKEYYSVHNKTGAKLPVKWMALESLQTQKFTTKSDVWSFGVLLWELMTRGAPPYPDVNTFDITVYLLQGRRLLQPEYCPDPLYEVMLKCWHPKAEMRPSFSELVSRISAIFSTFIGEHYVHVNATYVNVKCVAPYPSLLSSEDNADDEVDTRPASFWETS

SMILES	Met Kinase % Inhibition (P.130)
O=C1Nc2ccc(S(=O)(=O)N3CCOCC3)cc2C1=Cc1cccc(OCc2ccccc2)c1 [10739/F03]	38.8%
O=C1Nc2ccc(CCCl)cc2C1=Cc1cccc(OCc2ccccc2)c1 [10739/G03]	9.3%
O=C1Nc2ccc(CCCl)cc2C1=Cc1ccc(O)cc1Cl [10739/G06]	27.7%
COc1ccc(Oc2cccc(C=C3C(=O)Nc4ccc(S(=O)(=O)Nc5ccc(C(F)(F)F)cc5)cc43)c2)cc1 [10739/E08]	16.1%
O=C1Nc2ccc(S(=O)(=O)Nc3ccc(C(F)(F)F)cc3)cc2C1=Cc1ccc(O)cc1Cl [10739/E06]	66.3%
O=C1Nc2ccc(S(=O)(=O)N3CCOCC3)cc2C1=Cc1cc(O)c(O)c(O)c1 [10739/F07]	100.5%
Cc1c(Br)ccc2c1C(=Cc1ccoc1)C(=O)N2 [10739/C10]	66.3%
CNS(=O)(=O)c1ccc2c(c1)C(=Cc1ccc(OC)c(C)c1)C(=O)N2 [10739/D02]	29.0%
CN(C)CCCOc1ccc(C=C2C(=O)Nc3ccc(S(=O)(=O)Nc4ccc(C(F)(F)F)cc4)cc32)cc1 [10739/E09]	33.8%
O=C1Nc2ccc(S(=O)(=O)Nc3ccc(C(F)(F)F)cc3)cc2C1=Cc1cccc(OCc2ccccc2)c1 [10739/E03]	−3.4%
CNS(=O)(=O)c1ccc2c(c1)C(=Cc1cc(O)c(O)c(O)c1)C(=O)N2 [10739/D07]	86.0%
COc1ccc(Oc2cccc(C=C3C(=O)Nc4ccc(Br)c(C)c43)c2)cc1 [10739/C08]	9.1%
Cc1c(Br)ccc2c1C(=Cc1cccc(OCc3ccccc3)c1)C(=O)N2 [10739/C03]	10.9%
CNS(=O)(=O)c1ccc2c(c1)C(=Cc1ccc(OCc3ccccc3)cc1)C(=O)N2 [10739/D04]	11.1%
O=C1Nc2c(Br)cc(Br)cc2C1=Cc1ccoc1 [10739/A10]	81.2%
O=C1Nc2ccc(CCCl)cc2C1=Cc1ccc(CO)o1 [10739/G11]	56.7%
O=C1Nc2ccc(S(=O)(=O)N3CCOCC3)cc2C1=Cc1ccc(CO)o1 [10739/F11]	40.9%
COc1ccc(Oc2cccc(C=C3C(=O)Nc4c(Br)cc(Br)cc43)c2)cc1 [10739/A08]	39.9%
O=C1Nc2ccc(I)cc2C1=CC1COc2ccccc2O1 (stereo not shown) [10739/B05]	74.0%
Cc1c(Br)cc(Br)c2c1C(=Cc1ccc(Cl)c(Cl)c1)C(=O)N2 [10738/H08]	20.7%
O=C1Nc2ccc(I)cc2C1=Cc1ccc(CO)o1 [10739/B11]	84.9%
COc1ccc(Oc2cccc(C=C3C(=O)Nc4ccc(I)cc43)c2)cc1 [10739/B08]	65.8%
O=C1Nc2ccc(S(=O)(=O)Nc3ccc(C(F)(F)F)cc3)cc2C1=Cc1ccoc1 [10739/E10]	71.9%
O=C1Nc2ccc(S(=O)(=O)N3CCOCC3)cc2C1=Cc1ccc(O)cc1Cl [10739/F06]	56.3%

SMILES	Met Kinase % Inhibition (P.130)
O=C1Nc2ccc(CCCl)cc2C1=Cc1ccoc1 [10739/G10]	36.5%
Cc1c(Br)ccc2c1C(=Cc1ccc(OCc3ccccc3)cc1)C(=O)N2 [10739/C04]	−3.6%
COc1ccc(C=C2C(=O)Nc3ccc(Br)c(C)c32)cc1C [10739/C02]	34.7%
COc1ccc(C=C2C(=O)Nc3ccc(S(=O)(=O)Nc4ccc(C(F)(F)F)cc4)cc32)cc1C [10739/E02]	30.0%
Cc1c(Br)cc(Br)c2c1C(=Cc1ccoc1)C(=O)N2 [10739/H10]	62.4%
O=C1Nc2ccc(I)cc2C1=Cc1ccoc1 [10739/B10]	70.6%
O=C1Nc2ccc(I)cc2C1=Cc1ccc(OCc2ccccc2)cc1 [10739/B04]	65.1%
O=C1Nc2ccc(I)cc2C1=Cc1ccc(O)cc1Cl [10739/B06]	68.1%
O=C1Nc2c(Br)cc(Br)cc2C1=Cc1ccc(CO)o1 [10739/A11]	82.8%
CNS(=O)(=O)c1ccc2c(c1)C(=Cc1cccc(Oc3ccc(OC)cc3)c1)C(=O)N2 [10739/D08]	5.2%
COc1ccc(C=C2C(=O)Nc3ccc(S(=O)(=O)N4CCOCC4)cc32)cc1C [10739/F02]	50.8%
COc1ccccc1C=C1C(=O)Nc2c(Br)cc(Br)c(C)c21 [10738/H09]	52.3%
CN(C)CCCOc1ccc(C=C2C(=O)Nc3ccc(S(=O)(=O)N4CCOCC4)cc32)cc1 [10739/F09]	−7.0%
Cc1c(Br)ccc2c1C(=Cc1ccc(O)cc1Cl)C(=O)N2 [10739/C06]	56.1%
O=C1Nc2ccc(CCCl)cc2C1=CC1COc2ccccc2O1 (stereo not shown) [10739/G05]	27.7%
O=C1Nc2c(Br)cc(Br)cc2C1=Cc1ccc(O)cc1Cl [10739/A06]	70.1%
O=C1Nc2ccc(S(=O)(=O)Nc3ccc(C(F)(F)F)cc3)cc2C1=Cc1ccc(OCc2ccccc2)cc1 [10739/E04]	−15.2%
O=C1Nc2ccc(CCCl)cc2C1=Cc1cc(O)c(O)c(O)c1 [10739/G07]	92.6%
O=C1Nc2c(Br)cc(Br)cc2C1=CC1COc2ccccc2O1 (stereo not shown) [10739/A05]	36.5%
Cc1c(Br)cc(Br)c2c1C(=Cc1ccc(OCc3ccccc3)cc1)C(=O)N2 [10739/H04]	−2.7%
O=C1Nc2c(Br)cc(Br)cc2C1=Cc1cc(O)c(O)c(O)c1 [10739/A07]	99.9%
CNS(=O)(=O)c1ccc2c(c1)C(=Cc1ccc(OCCCN(C)C)cc1)C(=O)N2 [10739/D09]	66.7%
O=C1Nc2ccc(S(=O)(=O)Nc3ccc(C(F)(F)F)cc3)cc2C1=Cc1ccc(CO)o1 [10739/E11]	76.9%
O=C1Nc2c(Br)cc(Br)cc2C1=Cc1ccc(OCc2ccccc2)cc1 [10739/A04]	45.2%

SMILES	Met Kinase % Inhibition (P.130)
CNS(=O)(=O)c1ccc2c(c1)C(=Cc1ccc(O)cc1Cl)C(=O)N2 [10739/D06]	59.2%
Cc1c(Br)cc(Br)c2c1C(=Cc1cc(O)cc(O)c1)C(=O)N2 [10738/H07]	77.2%
COc1ccc(Oc2cccc(C=C3C(=O)Nc4c(Br)cc(Br)c(C)c43)c2)cc1 [10739/H08]	22.9%
Cc1c(Br)ccc2c1C(=Cc1ccc(OCCCN(C)C)cc1)C(=O)N2 [10739/C09]	76.3%
O=C1Nc2ccc(CCCl)cc2C1=Cc1ccc(OCc2ccccc2)cc1 [10739/G04]	4.1%
COc1ccc(C=C2C(=O)Nc3c(Br)cc(Br)cc32)cc1C [10739/A02]	41.8%
COc1ccc(Oc2cccc(C=C3C(=O)Nc4ccc(CCCl)cc43)c2)cc1 [10739/G08]	20.9%
CN(C)CCCOc1ccc(C=C2C(=O)Nc3ccc(I)cc32)cc1 [10739/B09]	63.5%
O=C1Nc2ccc(S(=O)(=O)N3CCOCC3)cc2C1=Cc1ccoc1 [10739/F10]	40.4%
Cc1c(Br)cc(Br)c2c1C(=Cc1ccc(O)cc1Cl)C(=O)N2 [10739/H06]	42.2%
O=C1Nc2ccc(I)cc2C1=Cc1cc(O)c(O)c(O)c1 [10739/B07]	98.7%
O=C1Nc2c(Br)cc(Br)cc2C1=Cc1cccc(OCc2ccccc2)c1 [10739/A03]	37.4%
Cc1c(Br)cc(Br)c2c1C(=Cc1cccc(OCc3ccccc3)c1)C(=O)N2 [10739/H03]	10.4%
O=C1Nc2ccc(S(=O)(=O)Nc3ccc(C(F)(F)F)cc3)cc2C1=Cc1cc(O)c(O)c(O)c1 [10739/E07]	94.0%
O=C1Nc2ccc(S(=O)(=O)N3CCOCC3)cc2C1=CC1COc2ccccc2O1 (stereo not shown) [10739/F05]	−5.4%
CNS(=O)(=O)c1ccc2c(c1)C(=CC1COc3ccccc3O1)C(=O)N2 (stereo not shown) [10739/D05]	30.0%
CN(C)CCCOc1ccc(C=C2C(=O)Nc3c(Br)cc(Br)cc32)cc1 [10739/A09]	60.4%
CNS(=O)(=O)c1ccc2c(c1)C(=Cc1cccc(OCc3ccccc3)c1)C(=O)N2 [10739/D03]	15.9%
COc1ccc(Oc2cccc(C=C3C(=O)Nc4ccc(S(=O)(=O)N5CCOCC5)cc43)c2)cc1 [10739/F08]	13.4%
COc1ccc(C=C2C(=O)Nc3ccc(CCCl)cc32)cc1C [10739/G02]	12.9. %
CCCOc1ccc(C=C2C(=O)Nc3c(Br)cc(Br)c(C)c32)cc1 [10738/H11]	24.9%
Cc1c(Br)ccc2c1C(=CC1COc3ccccc3O1)C(=O)N2 (stereo not shown) [10739/C05]	34.7%
